Test system: wound with full-thickness skin loss in genetically diabetic db/db mice
Test: Cell attraction test in vivo of mice: skin regeneration test (wound healing test)
Parameters: species or system mouse
Conditions: 120 μg/mL or 40 μg/mL PBS solution, 20 μL per site dropwise onto wound surface, three times per week for four weeks, FIG. 4
From the text: Cell Attraction Test In Vivo of Mice
In order to evaluate the performance of the attractant for bone marrow stem cells to attract bone marrow stem cells in vivo of mice, living mice were subjected to experiments as follows. When a living mouse is wounded, bone marrow stem cells can accumulate around the wound portion through the bloodstream. Then, the bone marrow stem cells that have accumulated around the wound portion secrete cytokine, or the bone marrow stem cells that have accumulated around the wound portion differentiate into cells of the wound portion, thereby allowing the wound to be healed. Accordingly, it is expected that application of the attractant for bone marrow stem cells to the wound portion causes the bone marrow stem cells to be attracted to the wound portion, thereby accelerating the healing of the wound.
Method of Skin Regeneration Test (Wound Healing Test) […]
A picture of the back was captured three times per week, for four weeks, and the image was loaded into a PC. Thus, the wound area was measured using an image analysis software (product name: Image J). Thereafter, the wound area was measured once a week until about 60 days from the wound creation.

## Oc1cc(O)c2c(c1)O[C@@]1(c3ccc(O)c(O)c3)Oc3cc(O)c4c(c3[C@@H]2[C@H]1O)O[C@H](c1ccc(O)c(O)c1)[C@H](O)[C@H]4c1c(O)cc(O)c2c1O[C@H](c1ccc(O)c(O)c1)[C@H](O)C2 [cinnamtannin B1]
  wound area measurement (healing of the wound): healing of the wound was accelerated
